Test results as given in ChEMBL document CHEMBL1287771, “Novel hybrids of 15-membered 8a- and 9a-azahomoerythromycin A ketolides and quinolones as potent antibacterials” (2010).
Values after ≈ are worked out from the molar mass of the structure shown.

How the values were obtained:
Format in all cases: functional
Streptococcus pyogenes [1] = experiment: Antibacterial activity against inducible macrolide-lincosamide-streptogramin B-resistant Streptococcus pyogenes B0543 by agar microdilution method
Streptococcus pyogenes [2] = experiment: Antibacterial activity against erythromycin A-susceptible Streptococcus pyogenes B0542 by agar microdilution method
Streptococcus pneumoniae [3] = experiment: Antibacterial activity against efflux-resistant Streptococcus pneumoniae B0326 by agar microdilution method
Streptococcus pneumoniae [4] = experiment: Antibacterial activity against constitutive macrolide-lincosamide-streptogramin B-resistant Streptococcus pneumoniae B0627 by agar microdilution method
Streptococcus pneumoniae [5] = experiment: Antibacterial activity against erythromycin A-susceptible Streptococcus pneumoniae B0541 by agar microdilution method
Staphylococcus aureus [6] = experiment: Antibacterial activity against efflux-resistant Staphylococcus aureus B0331 by agar microdilution method
Staphylococcus aureus [7] = experiment: Antibacterial activity against constitutive macrolide-lincosamide-streptogramin B-resistant Staphylococcus aureus B0330 by agar microdilution method
Staphylococcus aureus [8] = experiment: Antibacterial activity against inducible macrolide-lincosamide-streptogramin B-resistant Staphylococcus aureus B0538 by agar microdilution method
Staphylococcus aureus [9] = experiment: Antibacterial activity against erythromycin A-susceptible Staphylococcus aureus B0329 by agar microdilution method
Streptococcus pyogenes [10] = experiment: Antibacterial activity against constitutive macrolide-lincosamide-streptogramin B-resistant Streptococcus pyogenes B0544 by agar microdilution method
Streptococcus pyogenes [11] = experiment: Antibacterial activity against efflux-resistant Streptococcus pyogenes B0545 by agar microdilution method
Moraxella catarrhalis = experiment: Antibacterial activity against Moraxella catarrhalis B0324 by agar microdilution method
Haemophilus influenzae = experiment: Antibacterial activity against Haemophilus influenzae B0529 by agar microdilution method

Row | SMILES | MIC (Streptococcus pyogenes [1]) [µg/mL] | MIC (Streptococcus pyogenes [2]) [µg/mL] | MIC (Streptococcus pneumoniae [3]) [µg/mL] | MIC (Streptococcus pneumoniae [4]) [µg/mL] | MIC (Streptococcus pneumoniae [5]) [µg/mL] | MIC (Staphylococcus aureus [6]) [µg/mL] | MIC (Staphylococcus aureus [7]) [µg/mL] | MIC (Staphylococcus aureus [8]) [µg/mL] | MIC (Staphylococcus aureus [9]) [µg/mL] | MIC (Streptococcus pyogenes [10]) [µg/mL] | MIC (Streptococcus pyogenes [11]) [µg/mL] | MIC (Moraxella catarrhalis) [µg/mL] | MIC (Haemophilus influenzae) [µg/mL]
1 | CC[C@H]1OC(=O)[C@H](C)C(=O)[C@H](C)[C@@H](O[C@@H]2O[C@H](C)C[C@H](N(C)C)[C@H]2O)[C@](C)(OC/C=C/c2cnc3ccccc3c2)C[C@@H](C)C(=O)N[C@H](C)[C@H](O)[C@@]1(C)O | 64 (≈ 84.7 µM) | 0.5 (≈ 0.661 µM) | 8 (≈ 10.6 µM) | 64 (≈ 84.7 µM) | 2 (≈ 2.65 µM) | 16 (≈ 21.2 µM) | > 64 | 16 (≈ 21.2 µM) | 8 (≈ 10.6 µM) | > 64 | 4 (≈ 5.29 µM) | 2 (≈ 2.65 µM) | 32 (≈ 42.3 µM)
2 | CC[C@H]1OC(=O)[C@H](C)C(=O)[C@H](C)[C@@H](O[C@@H]2O[C@H](C)C[C@H](N(C)C)[C@H]2O)[C@](C)(OC/C=C/c2cnc3ccccc3c2)C[C@@H](C)NC(=O)[C@H](C)[C@@H]2OC(=O)O[C@]12C | ≤ 0.125 | ≤ 0.125 | ≤ 0.125 | 4 (≈ 5.12 µM) | 0.06 (≈ 0.0767 µM) | 0.25 (≈ 0.32 µM) | 64 (≈ 81.8 µM) | 0.25 (≈ 0.32 µM) | ≤ 0.125 | 8 (≈ 10.2 µM) | 0.5 (≈ 0.639 µM) | 0.25 (≈ 0.32 µM) | 1 (≈ 1.28 µM)
3 | CC[C@H]1OC(=O)[C@H](C)C(=O)[C@H](C)[C@@H](O[C@@H]2O[C@H](C)C[C@H](N(C)C)[C@H]2O)[C@](C)(OCC(O)CNCCNc2ccc3c(c2F)c(=O)c(C(=O)O)cn3C2CC2)C[C@@H](C)NC(=O)[C@H](C)[C@H](O)[C@@]1(C)O (some centres not stated) | 1 (≈ 1.05 µM) | ≤ 0.125 | 2 (≈ 2.11 µM) | 2 (≈ 2.11 µM) | ≤ 0.125 | 4 (≈ 4.21 µM) | > 64 | 1 (≈ 1.05 µM) | 1 (≈ 1.05 µM) | 8 (≈ 8.42 µM) | 16 (≈ 16.8 µM) | 2 (≈ 2.11 µM) | 2 (≈ 2.11 µM)
4 | CC[C@H]1OC(=O)[C@H](C)C(=O)[C@H](C)[C@@H](O[C@@H]2O[C@H](C)C[C@H](N(C)C)[C@H]2O)[C@](C)(OC[C@H](O)CN2CCN(c3ccc4c(c3F)c(=O)c(C(=O)O)cn4C3CC3)CC2)C[C@@H](C)NC(=O)[C@H](C)[C@H](O)[C@@]1(C)O | 0.5 (≈ 0.512 µM) | ≤ 0.125 | 0.25 (≈ 0.256 µM) | 0.5 (≈ 0.512 µM) | ≤ 0.125 | 0.5 (≈ 0.512 µM) | 8 (≈ 8.2 µM) | 0.25 (≈ 0.256 µM) | ≤ 0.125 | 4 (≈ 4.1 µM) | 0.5 (≈ 0.512 µM) | 0.5 (≈ 0.512 µM) | 0.25 (≈ 0.256 µM)
5 | CC[C@H]1OC(=O)[C@H](C)C(=O)[C@H](C)[C@@H](O[C@@H]2O[C@H](C)C[C@H](N(C)C)[C@H]2O)[C@](C)(OC/C=C/c2cccc3ccccc23)C[C@@H](C)NC(=O)[C@H](C)[C@H](O)[C@@]1(C)O | 4 (≈ 5.3 µM) | 0.25 (≈ 0.331 µM) | 2 (≈ 2.65 µM) | > 64 | ≤ 0.125 | 4 (≈ 5.3 µM) | > 64 | 2 (≈ 2.65 µM) | 1 (≈ 1.32 µM) | > 64 | 2 (≈ 2.65 µM) | 0.25 (≈ 0.331 µM) | 8 (≈ 10.6 µM)
6 | CC[C@H]1OC(=O)[C@H](C)C(=O)[C@H](C)[C@@H](O[C@@H]2O[C@H](C)C[C@H](N(C)C)[C@H]2O)[C@](C)(OCC=Cc2cnc3ccccc3c2)C[C@@H](C)C(=O)[C@H](C)[C@H]2NC(=O)O[C@@]21C [CETHROMYCIN] | ≤ 0.06 | ≤ 0.06 | ≤ 0.06 | ≤ 0.125 | 0.06 (≈ 0.0783 µM) | 0.25 (≈ 0.326 µM) | > 64 | 0.25 (≈ 0.326 µM) | ≤ 0.06 | 1 (≈ 1.31 µM) | ≤ 0.125 | ≤ 0.125 | 2 (≈ 2.61 µM)
7 | C=CCO[C@@]1(C)[C@@H](CC)OC(=O)[C@H](C)C(=O)[C@H](C)[C@@H](O[C@@H]2O[C@H](C)C[C@H](N(C)C)[C@H]2O)[C@](C)(OCC=C)C[C@@H](C)C(=O)N[C@H](C)[C@@H]1O [3-O-DESCLADINOSYL-6,12-DI-O-ALLYL-3-OXO-9A-AZA-9A-HOMOERYTHROMYCIN A] | 32 (≈ 47.8 µM) | 2 (≈ 2.99 µM) | 4 (≈ 5.98 µM) | > 64 | 2 (≈ 2.99 µM) | 16 (≈ 23.9 µM) | > 64 | 8 (≈ 12 µM) | 8 (≈ 12 µM) | > 64 | 8 (≈ 12 µM) | ≤ 0.125 | 16 (≈ 23.9 µM)
8 | CC[C@H]1OC(=O)[C@H](C)C(=O)[C@H](C)[C@@H](O[C@H]2C[C@H](O)[C@@H](N(C)C)[C@@H](C)O2)[C@](C)(OC/C=C/c2cnc3ccccc3c2)C[C@@H](C)/C(=N\OC(C)=O)[C@H](C)[C@@H](O)[C@]1(C)O | ≤ 0.125 | 0.125 (≈ 0.157 µM) | ≤ 0.125 | 8 (≈ 10 µM) | ≤ 0.125 | 1 (≈ 1.25 µM) | 64 (≈ 80.2 µM) | 0.5 (≈ 0.627 µM) | 0.25 (≈ 0.313 µM) | 32 (≈ 40.1 µM) | 0.5 (≈ 0.627 µM) | 8 (≈ 10 µM) | 32 (≈ 40.1 µM)
9 | CC[C@H]1OC(=O)[C@H](C)C(=O)[C@H](C)[C@@H](O[C@@H]2O[C@H](C)C[C@H](N(C)C)[C@H]2O)[C@](C)(OCC(O)CN2CCN(c3cc4c(=O)c(C(=O)O)cn(C5CC5)c4cc3Cl)CC2)C[C@@H](C)NC(=O)[C@H](C)[C@H](O)[C@@]1(C)O (some centres not stated) | 1 (≈ 1.01 µM) | ≤ 0.125 | 0.25 (≈ 0.252 µM) | 1 (≈ 1.01 µM) | ≤ 0.125 | 0.25 (≈ 0.252 µM) | > 64 | 1 (≈ 1.01 µM) | 1 (≈ 1.01 µM) | 4 (≈ 4.03 µM) | 0.5 (≈ 0.504 µM) | ≤ 0.125 | 1 (≈ 1.01 µM)
10 | CC[C@H]1OC(=O)[C@H](C)C(=O)[C@H](C)[C@@H](O[C@H]2C[C@H](O)[C@@H](N(C)C)[C@@H](C)O2)[C@](C)(OC/C=C/c2cnc3ccccc3c2)C[C@@H](C)/C(=N\O)[C@H](C)[C@@H](O)[C@]1(C)O | ≤ 0.125 | ≤ 0.125 | ≤ 0.125 | 4 (≈ 5.29 µM) | ≤ 0.125 | 0.5 (≈ 0.661 µM) | > 64 | ≤ 0.125 | ≤ 0.125 | 32 (≈ 42.3 µM) | ≤ 0.125 | 4 (≈ 5.29 µM) | 8 (≈ 10.6 µM)
11 | CC[C@H]1OC(=O)[C@H](C)C(=O)[C@H](C)[C@@H](O[C@@H]2O[C@H](C)C[C@H](N(C)C)[C@H]2O)[C@](C)(OCC(O)CN[C@H](C)Cc2ccccc2)C[C@@H](C)NC(=O)[C@H](C)[C@H](O)[C@@]1(C)O (some centres not stated) | 0.5 (≈ 0.641 µM) | ≤ 0.125 | 1 (≈ 1.28 µM) | 2 (≈ 2.56 µM) | ≤ 0.125 | 2 (≈ 2.56 µM) | > 64 | 2 (≈ 2.56 µM) | 0.5 (≈ 0.641 µM) | 4 (≈ 5.13 µM) | 0.5 (≈ 0.641 µM) | 0.25 (≈ 0.321 µM) | 1 (≈ 1.28 µM)
12 | CC[C@H]1OC(=O)[C@H](C)C(=O)[C@H](C)[C@@H](O[C@@H]2O[C@H](C)C[C@H](N(C)C)[C@H]2O)[C@](C)(OCCCC2CNc3ccccc3C2)C[C@@H](C)NC(=O)[C@H](C)[C@H](O)[C@@]1(C)O (some centres not stated) | 16 (≈ 21 µM) | ≤ 0.125 | 8 (≈ 10.5 µM) | 64 (≈ 84 µM) | ≤ 0.125 | 64 (≈ 84 µM) | 64 (≈ 84 µM) | > 64 | 2 (≈ 2.62 µM) | > 64 | 8 (≈ 10.5 µM) | 1 (≈ 1.31 µM) | 16 (≈ 21 µM)
13 | O=C(O)c1cn(C2CC2)c2cc(N3CCNCC3)c(F)cc2c1=O [CIPROFLOXACIN] | 0.25 (≈ 0.754 µM) | 2 (≈ 6.04 µM) | 0.25 (≈ 0.754 µM) | 0.25 (≈ 0.754 µM) | ≤ 0.125 | ≤ 0.125 | ≤ 0.125 | – | – | 0.5 (≈ 1.51 µM) | ≤ 0.125 | 0.125 (≈ 0.377 µM) | ≤ 0.125
